Experimental data taken from the OligoGym collection.
HELM strings list units from the 5' end as sugar, base in round brackets, then linkage (d deoxyribose, r ribose, m 2'-O-methyl, p phosphodiester). Strings are as the collection lists them, not checked against the first reports. ss, as = sense and antisense strand

Details: siRNA
Note: test system not given here.

RNA1{m(A)p.r(U)p.m(C)p.r(A)p.m(C)p.r(A)p.m(A)p.r(A)p.m(C)p.r(C)p.m(C)p.r(C)p.m(U)p.r(A)p.m(G)p.r(A)p.m(G)p.r(G)p.m(G)p.r(T)p.r(T)}|RNA2{r(C)p.r(C)p.r(C)p.r(U)p.r(C)p.r(U)p.r(A)p.r(G)p.r(G)p.r(G)p.r(G)p.r(U)p.r(U)p.r(U)p.r(G)p.r(U)p.r(G)p.r(A)p.r(U)p.r(T)p.r(T)}$$$RNA1{StrandType:ss}|RNA2{StrandType:as}$
target mRNA knockdown: 9%

RNA1{m(A)p.r(U)p.m(C)p.r(A)p.m(G)p.r(A)p.m(G)p.r(G)p.m(G)p.r(A)p.m(G)p.r(G)p.m(U)p.r(C)p.m(U)p.r(U)p.m(A)p.r(G)p.m(A)p.r(T)p.r(T)}|RNA2{r(U)p.r(C)p.r(U)p.r(A)p.r(A)p.m(G)p.r(A)p.r(C)p.r(C)p.r(U)p.r(C)p.r(C)p.r(C)p.r(U)p.m(C)p.r(U)p.m(G)p.r(A)p.m(U)p.r(T)p.r(T)}$$$RNA1{StrandType:ss}|RNA2{StrandType:as}$
target mRNA knockdown: 19%

RNA1{m(A)p.r(U)p.m(C)p.r(C)p.m(U)p.r(G)p.m(C)p.r(A)p.m(G)p.r(A)p.m(A)p.r(G)p.m(A)p.r(A)p.m(G)p.r(C)p.m(C)p.r(U)p.m(C)p.r(T)p.r(T)}|RNA2{r(G)p.r(A)p.r(G)p.r(G)p.m(C)p.r(U)p.r(U)p.m(C)p.r(U)p.r(U)p.m(C)p.r(U)p.r(G)p.m(C)p.r(A)p.r(G)p.r(G)p.r(A)p.r(U)p.r(T)p.r(T)}$$$RNA1{StrandType:ss}|RNA2{StrandType:as}$
target mRNA knockdown: 37%

RNA1{m(A)p.r(U)p.m(C)p.r(G)p.m(U)p.r(C)p.m(G)p.r(U)p.m(C)p.r(A)p.m(G)p.r(G)p.m(G)p.m(U)p.r(A)p.m(A)p.r(G)p.m(G)p.r(U)p.r(T)p.r(T)}|RNA2{r(A)p.r(C)p.r(C)p.r(U)p.r(U)p.r(A)p.r(C)p.r(C)p.r(C)p.r(U)p.r(G)p.r(A)p.r(C)p.r(G)p.m(A)p.r(C)p.m(G)p.r(A)p.m(U)p.r(T)p.r(T)}$$$RNA1{StrandType:ss}|RNA2{StrandType:as}$
target mRNA knockdown: 34%

RNA1{m(A)p.r(U)p.m(C)p.r(U)p.m(A)p.r(C)p.m(C)p.r(C)p.m(A)p.r(G)p.m(C)p.r(U)p.m(C)p.r(U)p.m(C)p.r(C)p.m(C)p.r(U)p.m(U)p.r(T)p.r(T)}|RNA2{r(A)p.r(A)p.r(G)p.r(G)p.r(G)p.r(A)p.r(G)p.r(A)p.r(G)p.r(C)p.m(U)p.r(G)p.r(G)p.r(G)p.m(U)p.r(A)p.r(G)p.r(A)p.m(U)p.r(T)p.r(T)}$$$RNA1{StrandType:ss}|RNA2{StrandType:as}$
target mRNA knockdown: 43%

RNA1{m(A)p.r(U)p.m(G)p.r(G)p.m(G)p.r(A)p.m(G)p.r(A)p.m(A)p.r(G)p.m(U)p.r(A)p.m(G)p.r(U)p.m(C)p.r(C)p.m(C)p.r(C)p.r(C)p.r(T)p.r(T)}|RNA2{r(G)p.r(G)p.r(G)p.r(G)p.r(G)p.r(A)p.r(C)p.r(U)p.r(A)p.r(C)p.r(U)p.r(U)p.r(C)p.r(U)p.r(C)p.r(C)p.r(C)p.r(A)p.r(U)p.r(T)p.r(T)}$$$RNA1{StrandType:ss}|RNA2{StrandType:as}$
target mRNA knockdown: 71%

RNA1{m(C)p.m(G)p.m(U)p.m(A)p.m(C)p.m(G)p.r(C)p.r(G)p.r(G)p.r(A)p.r(A)p.r(U)p.r(A)p.r(C)p.r(U)p.r(U)p.r(C)p.r(G)p.r(A)p.r(T)p.r(T)}|RNA2{r(U)p.r(C)p.r(G)p.r(A)p.r(A)p.r(G)p.r(U)p.r(A)p.r(U)p.r(U)p.r(C)p.r(C)p.r(G)p.r(C)p.r(G)p.r(U)p.r(A)p.r(C)p.r(G)p.r(T)p.r(T)}$$$RNA1{StrandType:ss}|RNA2{StrandType:as}$
target mRNA knockdown: 94.8%

RNA1{m(C)p.r(A)p.r(G)p.m(C)p.r(A)p.r(A)p.r(A)p.m(C)p.m(C)p.r(A)p.m(C)p.r(G)p.r(A)p.m(U)p.m(C)p.r(A)p.r(A)p.m(U)p.r(A)p.r(T)p.r(T)}|RNA2{m(U)p.r(A)p.m(U)p.m(U)p.r(G)p.r(A)p.m(U)p.m(C)p.r(G)p.m(U)p.r(G)p.r(G)p.m(U)p.m(U)p.m(U)p.r(G)p.m(C)p.m(U)p.r(G)p.r(T)p.r(T)}$$$RNA1{StrandType:ss}|RNA2{StrandType:as}$
target mRNA knockdown: 5%

RNA1{m(C)p.r(A)p.r(G)p.r(A)p.r(G)p.m(C)p.r(A)p.r(A)p.m(U)p.m(U)p.r(G)p.m(U)p.m(U)p.m(U)p.r(A)p.m(C)p.m(C)p.m(U)p.r(A)p.r(T)p.r(T)}|RNA2{m(U)p.r(A)p.r(G)p.r(G)p.m(U)p.r(A)p.r(A)p.r(A)p.m(C)p.r(A)p.r(A)p.m(U)p.m(U)p.r(G)p.m(C)p.m(U)p.m(C)p.r(U)p.r(G)p.r(T)p.r(T)}$$$RNA1{StrandType:ss}|RNA2{StrandType:as}$
target mRNA knockdown: 75%

RNA1{m(C)p.r(C)p.m(G)p.r(A)p.m(A)p.r(G)p.m(A)p.r(C)p.m(G)p.r(A)p.m(A)p.r(G)p.m(C)p.r(U)p.m(A)p.r(U)p.m(G)p.r(A)p.m(A)p.r(T)p.r(T)}|RNA2{r(U)p.r(U)p.r(C)p.r(A)p.r(U)p.r(A)p.m(G)p.r(C)p.r(U)p.r(U)p.r(C)p.m(G)p.r(U)p.r(C)p.r(U)p.r(U)p.r(C)p.m(G)p.m(G)p.r(T)p.r(T)}$$$RNA1{StrandType:ss}|RNA2{StrandType:as}$
target mRNA knockdown: 51%

RNA1{m(C)p.r(C)p.m(G)p.r(A)p.m(G)p.r(A)p.m(G)p.r(C)p.m(U)p.r(C)p.m(U)p.r(C)p.m(C)p.r(U)p.m(A)p.r(C)p.m(C)p.r(U)p.m(U)p.r(T)p.r(T)}|RNA2{r(A)p.r(A)p.r(G)p.r(G)p.r(U)p.r(A)p.r(G)p.r(G)p.r(A)p.r(G)p.r(A)p.r(G)p.r(C)p.r(U)p.r(C)p.r(U)p.r(C)p.r(G)p.r(G)p.r(T)p.r(T)}$$$RNA1{StrandType:ss}|RNA2{StrandType:as}$
target mRNA knockdown: 34%

RNA1{m(C)p.r(C)p.m(G)p.r(C)p.m(C)p.r(C)p.m(G)p.r(G)p.m(C)p.r(G)p.m(G)p.r(C)p.m(G)p.r(C)p.m(C)p.r(U)p.m(U)p.r(U)p.m(A)p.r(T)p.r(T)}|RNA2{r(U)p.r(A)p.r(A)p.r(A)p.r(G)p.r(G)p.r(C)p.r(G)p.r(C)p.r(C)p.r(G)p.r(C)p.r(C)p.r(G)p.r(G)p.r(G)p.r(C)p.r(G)p.r(G)p.r(T)p.r(T)}$$$RNA1{StrandType:ss}|RNA2{StrandType:as}$
target mRNA knockdown: 49%

RNA1{m(C)p.r(C)p.m(U)p.r(C)p.m(C)p.r(C)p.m(C)p.r(A)p.m(U)p.r(C)p.m(C)p.r(C)p.m(C)p.r(U)p.m(U)p.r(U)p.m(U)p.r(A)p.m(A)p.r(T)p.r(T)}|RNA2{r(U)p.r(U)p.r(A)p.r(A)p.r(A)p.r(A)p.r(G)p.r(G)p.r(G)p.r(G)p.r(A)p.r(U)p.m(G)p.r(G)p.m(G)p.r(G)p.m(A)p.r(G)p.m(G)p.r(T)p.r(T)}$$$RNA1{StrandType:ss}|RNA2{StrandType:as}$
target mRNA knockdown: 48%

RNA1{m(C)p.r(C)p.m(U)p.r(C)p.m(G)p.r(G)p.m(A)p.r(G)p.m(A)p.r(G)p.m(U)p.r(U)p.m(C)p.r(U)p.m(A)p.r(C)p.m(U)p.r(C)p.r(U)p.r(T)p.r(T)}|RNA2{r(A)p.r(G)p.r(A)p.r(G)p.r(U)p.r(A)p.r(G)p.r(A)p.r(A)p.r(C)p.r(U)p.r(C)p.r(U)p.r(C)p.r(C)p.r(G)p.r(A)p.r(G)p.r(G)p.r(T)p.r(T)}$$$RNA1{StrandType:ss}|RNA2{StrandType:as}$
target mRNA knockdown: 34%

RNA1{m(C)p.r(G)p.m(A)p.r(G)p.m(U)p.r(G)p.m(U)p.r(C)p.m(U)p.r(A)p.m(A)p.r(C)p.m(G)p.r(G)p.m(G)p.r(A)p.m(G)p.r(C)p.m(C)p.r(T)p.r(T)}|RNA2{r(G)p.r(G)p.r(C)p.r(U)p.r(C)p.r(C)p.r(C)p.r(G)p.r(U)p.r(U)p.r(A)p.r(G)p.r(A)p.r(C)p.r(A)p.r(C)p.r(U)p.r(C)p.r(G)p.r(T)p.r(T)}$$$RNA1{StrandType:ss}|RNA2{StrandType:as}$
target mRNA knockdown: 25%

RNA1{m(C)p.r(G)p.m(C)p.r(C)p.m(C)p.r(C)p.m(C)p.r(C)p.m(U)p.r(C)p.m(A)p.r(A)p.m(G)p.r(C)p.m(U)p.r(A)p.m(C)p.r(C)p.m(G)p.r(T)p.r(T)}|RNA2{r(C)p.r(G)p.r(G)p.r(U)p.r(A)p.r(G)p.r(C)p.r(U)p.r(U)p.r(G)p.r(A)p.r(G)p.r(G)p.r(G)p.r(G)p.r(G)p.r(G)p.r(C)p.r(G)p.r(T)p.r(T)}$$$RNA1{StrandType:ss}|RNA2{StrandType:as}$
target mRNA knockdown: 44%

RNA1{m(C)p.r(G)p.m(G)p.r(A)p.m(U)p.r(C)p.m(U)p.r(A)p.m(C)p.r(A)p.m(C)p.r(C)p.m(U)p.r(U)p.m(C)p.r(A)p.m(A)p.r(G)p.m(A)p.r(T)p.r(T)}|RNA2{m(U)p.r(C)p.m(U)p.m(U)p.r(G)p.r(A)p.r(A)p.r(G)p.r(G)p.m(U)p.r(G)p.m(U)p.r(A)p.r(G)p.r(A)p.m(U)p.r(C)p.r(C)p.r(G)p.r(T)p.r(T)}$$$RNA1{StrandType:ss}|RNA2{StrandType:as}$
target mRNA knockdown: 29%

RNA1{m(C)p.r(G)p.m(G)p.r(A)p.m(U)p.r(C)p.m(U)p.r(A)p.m(C)p.r(A)p.m(C)p.r(C)p.m(U)p.r(U)p.m(C)p.r(A)p.m(A)p.r(G)p.m(A)p.r(T)p.r(T)}|RNA2{r(U)p.r(C)p.r(U)p.r(U)p.r(G)p.r(A)p.r(A)p.r(G)p.r(G)p.r(U)p.r(G)p.r(U)p.m(A)p.r(G)p.m(A)p.r(U)p.m(C)p.r(C)p.m(G)p.r(T)p.r(T)}$$$RNA1{StrandType:ss}|RNA2{StrandType:as}$
target mRNA knockdown: 46%

RNA1{m(C)p.r(U)p.m(A)p.r(C)p.m(C)p.r(U)p.m(U)p.r(C)p.m(U)p.r(C)p.m(C)p.r(U)p.m(C)p.r(U)p.m(U)p.r(C)p.m(U)p.r(C)p.m(C)p.r(T)p.r(T)}|RNA2{r(G)p.r(G)p.r(A)p.r(G)p.r(A)p.r(A)p.r(G)p.r(A)p.r(G)p.r(G)p.r(A)p.r(G)p.r(A)p.r(A)p.r(G)p.r(G)p.r(U)p.r(A)p.r(G)p.r(T)p.r(T)}$$$RNA1{StrandType:ss}|RNA2{StrandType:as}$
target mRNA knockdown: 27%

RNA1{m(C)p.r(U)p.m(A)p.r(G)p.m(U)p.r(C)p.m(G)p.r(A)p.m(A)p.r(A)p.m(G)p.r(A)p.m(A)p.r(A)p.m(A)p.r(C)p.m(G)p.r(G)p.m(G)p.r(T)p.r(T)}|RNA2{r(C)p.r(C)p.r(C)p.r(G)p.r(U)p.r(U)p.r(U)p.r(U)p.r(C)p.r(U)p.r(U)p.r(U)p.r(C)p.r(G)p.m(A)p.r(C)p.r(U)p.m(A)p.r(G)p.r(T)p.r(T)}$$$RNA1{StrandType:ss}|RNA2{StrandType:as}$
target mRNA knockdown: 23%

RNA1{m(C)p.r(U)p.m(C)p.r(A)p.m(A)p.r(A)p.m(U)p.r(C)p.m(A)p.r(A)p.m(G)p.r(G)p.m(C)p.r(C)p.m(G)p.r(G)p.m(A)p.r(G)p.m(U)p.r(T)p.r(T)}|RNA2{r(A)p.r(C)p.r(U)p.r(C)p.r(C)p.m(G)p.m(G)p.r(C)p.r(C)p.r(U)p.r(U)p.m(G)p.r(A)p.r(U)p.r(U)p.r(U)p.m(G)p.r(A)p.m(G)p.r(T)p.r(T)}$$$RNA1{StrandType:ss}|RNA2{StrandType:as}$
target mRNA knockdown: 36%
